Assay results from ChEMBL document CHEMBL4406878, “Antiviral efficacy of bromo-anilino substituents of 4,5-dihydrofuran-3-carboxylate compound CW-33 against Japanese encephalitis virus” (Bioorg Med Chem Lett, 2019).
pIC50: −log10 of the molar value. The source made the active and inactive calls. The rule behind the calls is not given here.

Columns and labels:
[1] = Therapeutic index, ratio of CC50 for human TE671 cells to IC50 for antiviral activity against Japanese encephalitis virus infected in human TE671 cells assessed as reduction in virus yield by plaque assay; assay type: toxicity, cell-based; details: read-out: Ratio CC50/IC50
[2] = tested on: Japanese encephalitis virus; assay: (§1) Antiviral activity against Japanese encephalitis virus infected in human TE671 cells assessed as reduction in virus entry at early stage by measuring decrease in NS3-positive cells treated immediately after viral infection followed by virus/compound mixture wash-out at 1 hr post-incubation followed by culturing of cells for 24 hrs by DAPI-staining based immunofluorescence analysis; assay type: functional, organism-based; details: TE-671
[3] = Cytotoxicity against human TE671 cells assessed as reduction in cell viability after 48 hrs by MTT assay; assay type: cell-based, TE-671
[4] = tested on: Japanese encephalitis virus; assay: Inhibition of synthesis of Japanese encephalitis virus RNA genome transfected as EGFP replicon in human TE671 cells assessed as lowered ratio of negative to positive sense strand RNA at 10 uM treated at 1 hr post-transfection and measured at 36 hrs post treatment by RT-PCR analysis; assay type: functional, organism-based
[5] = tested on: Japanese encephalitis virus; assay: Antiviral activity against Japanese encephalitis virus infected in human TE671 cells assessed as reduction in virus infectivity by measuring decrease in NS3-positive cells treated immediately post-infection measured after 24 hrs by DAPI-staining based immunofluorescence analysis; assay type: functional, organism-based; details: for pIC50: TE-671, 24 h
[6] = tested on: Japanese encephalitis virus; assay: as §1, with “late” for “early”, “at 1 hr post-infection” for “immediately after viral infection”; assay type: functional, organism-based; details: TE-671
[7] = tested on: Japanese encephalitis virus; assay: Antiviral activity against Japanese encephalitis virus infected in human TE671 cells assessed as decline in infected cell apoptotic fraction by measuring proportion of cells at subG1 phase treated immediately post-infection measured at 36 hrs post-infection by PI-staining based flow cytometric analysis; assay type: functional, organism-based; details: for pIC50: TE-671, 36 h
[8] = tested on: Japanese encephalitis virus; assay: Antiviral activity against Japanese encephalitis virus infected in human TE671 cells assessed as inhibition of extracellular viral particles production by measuring reduction in virus yield measured after 36 hrs by plaque assay; assay type: functional, organism-based; details: for pIC50: TE-671, 36 h
[9] = tested on: Japanese encephalitis virus; assay: Antiviral activity against Japanese encephalitis virus infected in human TE671 cells assessed as reduction in virus-induced cytopathic effect at 10 to 100 uM treated immediately post-infection measured at 36 hrs post-infection by inverted microscopic analysis; assay type: functional, organism-based
[10] = tested on: Japanese encephalitis virus; assay: Antiviral activity against Japanese encephalitis virus infected in human TE671 cells assessed as inhibition of intracellular virion production at 10 uM measured at 24 to 48 hrs post-infection by plaque assay; assay type: functional, organism-based
[11] = tested on: Japanese encephalitis virus; assay: Antiviral activity against Japanese encephalitis virus infected in human TE671 cells assessed as reduction in viral yield treated immediately post-viral infection measured at 72 hrs post-infection by plaque assay; assay type: functional, organism-based; details: TE-671, 72 h
Enterovirus A71 = assay: Antiviral activity against Enterovirus A71 infected in human RD cells assessed as reduction in viral yield measured at 48 hrs post-infection by plaque reduction assay; assay type: functional, organism-based; details: Enterovirus A
[12] = tested on: Japanese encephalitis virus; assay: Antiviral activity against Japanese encephalitis virus infected in hamster BHK-21 cells assessed as reduction in viral yield treated immediately post-viral infection measured at 72 hrs post-infection by plaque assay; assay type: functional, organism-based; details: BHK-21, 72 h
[13] = tested on: Japanese encephalitis virus; assay: Antiviral activity against Japanese encephalitis virus infected in human TE671 cells assessed as reduction in virus entry at late stage by measuring decrease in NS3-positive cells at 1 to 10 uM treated at 1 hr post-infection followed by virus/compound mixture wash-out at 1 hr post-incubation followed by culturing of cells for 24 hrs by DAPI-staining based immunofluorescence analysis; assay type: functional, organism-based

Row | Compound | selectivity ratio [1] | pIC50 [2] | CC50 at 48 h [3] [µM] | inhibition [4] | inhibition [5] | pIC50 [5] | pIC50 [6] | inhibition [7] | pIC50 [7] | inhibition [8] | pIC50 [8] | inhibition [9] | inhibition [10] | pIC50 [11] | pIC50 (Enterovirus A71) | pIC50 [12] | inhibition [13]
1 | CCOC(=O)C1=C(Nc2ccccc2Br)OCC1=O | 50.2 | 6.70 | 232 | Active | Dose-dependent effect | 6.70 | 4.99 | Dose-dependent effect | 5.49 | Dose-dependent effect | 5.34 | Active | Active |  |  |  | 
2 | CCOC(=O)C1=C(Nc2ccc(Cl)cc2)OCC1=O |  |  | > 100 |  |  |  |  | inactive |  |  |  | Active |  |  |  |  | 
3 | CCOC(=O)C1=C(Nc2cc(C)cc(C)c2)OCC1=O |  |  |  |  |  |  |  |  |  |  |  |  |  | 4.90 | 3.70 | 4.90 | 
4 | CCOC(=O)C1=C(Nc2cccc(Br)c2)OCC1=O | 12.4 |  | 151 | Active | Dose-dependent effect | 5.49 |  | Dose-dependent effect | 5.51 | Dose-dependent effect | 4.92 | Active |  |  |  |  | Active
5 | CCOC(=O)C1=C(Nc2cccc(Cl)c2)OCC1=O |  |  | > 100 |  |  |  |  | inactive |  |  |  | Active |  |  |  |  | 
6 | CCOC(=O)C1=C(Nc2ccccc2Cl)OCC1=O |  |  | > 100 |  |  |  |  | Dose-dependent effect | 4.30 |  |  | Active |  |  |  |  | 
7 | CCOC(=O)C1=C(Nc2ccc(Br)cc2)OCC1=O | 16.6 |  | 129 | inactive | Dose-dependent effect | 6.40 |  | Dose-dependent effect | 5.70 | Dose-dependent effect | 5.11 | Active |  |  |  |  | Active
